“Also recorded” adds a separate entry of the source.
How the values were obtained:
human PIPP = molecular target: T1, human PIPP (Homo sapiens, UniProt Q15735); test: Inorganic phosphate detection assay for phosphatase inhibition; assay type: biochemical; details: 20 µM diC8-PI(3,4,5)P3, 20 min
T1 construct: full-length human PIPP (amino acids 1–1 006) containing an N-terminal His8-tag; His8 (N); made in house; host or cells: Expi293 cells (pcDNA3.4, transient)
T1 sequence (Q15735 1-1006): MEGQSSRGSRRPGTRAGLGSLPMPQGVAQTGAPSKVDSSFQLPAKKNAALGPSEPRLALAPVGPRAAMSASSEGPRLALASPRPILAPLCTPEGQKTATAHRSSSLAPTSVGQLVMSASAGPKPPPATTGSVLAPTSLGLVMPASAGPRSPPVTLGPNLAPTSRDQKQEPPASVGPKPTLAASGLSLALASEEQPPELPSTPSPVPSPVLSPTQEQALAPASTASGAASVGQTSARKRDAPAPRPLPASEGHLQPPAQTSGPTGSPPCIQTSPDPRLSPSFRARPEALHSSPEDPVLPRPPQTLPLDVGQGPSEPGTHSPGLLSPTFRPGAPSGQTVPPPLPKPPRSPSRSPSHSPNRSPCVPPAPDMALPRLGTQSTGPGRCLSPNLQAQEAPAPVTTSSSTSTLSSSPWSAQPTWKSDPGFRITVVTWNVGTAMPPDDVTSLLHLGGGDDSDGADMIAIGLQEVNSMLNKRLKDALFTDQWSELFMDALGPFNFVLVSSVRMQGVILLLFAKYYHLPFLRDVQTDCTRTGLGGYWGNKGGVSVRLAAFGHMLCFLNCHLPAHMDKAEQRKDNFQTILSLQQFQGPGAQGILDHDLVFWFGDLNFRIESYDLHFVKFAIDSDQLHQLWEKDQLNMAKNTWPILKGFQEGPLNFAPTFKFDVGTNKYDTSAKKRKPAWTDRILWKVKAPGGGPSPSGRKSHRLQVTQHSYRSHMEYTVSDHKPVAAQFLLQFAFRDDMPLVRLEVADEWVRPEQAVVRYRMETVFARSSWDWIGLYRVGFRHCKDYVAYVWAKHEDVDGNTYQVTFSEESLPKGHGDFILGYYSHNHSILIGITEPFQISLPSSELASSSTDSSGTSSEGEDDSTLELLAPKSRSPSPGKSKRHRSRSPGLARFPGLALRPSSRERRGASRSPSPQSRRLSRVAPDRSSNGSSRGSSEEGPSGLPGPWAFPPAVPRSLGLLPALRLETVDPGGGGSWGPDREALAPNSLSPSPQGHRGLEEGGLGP
From the text: (§1) The protein purification is described in detail elsewhere. Briefly, full-length human INPP5K (amino acids 1–448, UniProt ID: Q9BT40), rat INPP5K (aa 1–446, UniProt ID: Q9R0B6), mouse INPP5K (aa 1–468, UniProt ID: Q8C5L6), hamster INPP5K (aa 1–453, UniProt ID: G3HTF6), guinea pig INPP5K (aa 1–473, UniProt ID: H0V8T7) containing an N-terminal FLAG-tag, full-length human SHIP2 (aa 1–1 258) containing a C-terminal FLAG-tag, and full-length human PIPP (amino acids 1–1 006) containing an N-terminal His8-tag were all cloned into the pcDNA3.4 expression vector and transiently expressed in Expi293 cells (Thermo Fisher Scientific). The PH domain of human TAPP1 (amino acids 180–404) containing an N-terminal GST-tag was expressed in a pGEX6P1 expression vector (GE Healthcare) in E. coli strain BL21 ((Merck KGaA, Darmstadt, Germany)), following IPTG induction at 37 °C for 5 h. All the FLAG-tagged INPP5Ks and hSHIP2 were purified using affinity columns containing DDDDK-tagged protein purification gel (MBL, Medical & Biological Laboratories Co., Ltd., Tokyo, Japan), followed by size-exclusion chromatography with Superdex 200 columns (GE Healthcare). His8-tagged hPIPP was purified using Ni–NTA Superflow (Qiagen) and Superdex 200 columns. The GST-tagged hTAPP1 domain was purified using a Glutathione Sepharose 4B (GE Healthcare) and Superdex 200 columns. The purity of the protein obtained was evaluated using SDS-PAGE.
(§2) The release of inorganic phosphate was measured using a PiPer Phosphate Assay Kit (Thermo Fisher Scientific), according to the manufacturer’s instructions, but with some modifications. Enzyme reactions were performed in a final volume of 10 µL per well in a 384-well nonbinding black plates (Greiner Bio-One International, GmbH, Kremsmünster, Austria). The reaction mixtures containing 20 µM diC8-PI(3,4,5)P₃ and each enzyme (human INPP5K, mouse INPP5K, rat INPP5K, hamster INPP5K, guinea pig INPP5K, human SHIP2, or human PIPP) in reaction buffer (50 mM Tris–HCl pH 7.0, 150 mM NaCl, 7.5 mM MgCl₂, 0.03% Igepal CA-630, 0.03% gelatin), with or without various concentrations of inhibitor, were incubated for 20 min at room temperature. The reactions were then stopped and detection reactions were initiated by adding 5 µL of detection mix 1 (60 mM EDTA, 12 U/mL maltose phosphorylase, and 0.6 mM maltose in 100 mM Tris–HCl pH 8.0). After incubation for 60 min at room temperature, 5 µL of detection mix 2 (8 U/mL glucose oxidase, 0.8 U/mL HRP, and 100 µM Amplex Red in 100 mM Tris–HCl pH 8.0) was added, and the mixture was incubated for a further 30 min at room temperature in the dark. The fluorescence generated was measured using an Envision plate reader at 531/590 nm (excitation/emission), and the percentage inhibition was calculated as described above.

mouse INPP5K = molecular target: T2, mouse INPP5K (Mus musculus, UniProt Q8C5L6); test: as above; assay type: biochemical
T2 construct: mouse INPP5K (aa 1–468, UniProt ID: Q8C5L6); FLAG (N); made in house; host or cells: Expi293 cells (pcDNA3.4, transient)
T2 sequence (Q8C5L6 1-468): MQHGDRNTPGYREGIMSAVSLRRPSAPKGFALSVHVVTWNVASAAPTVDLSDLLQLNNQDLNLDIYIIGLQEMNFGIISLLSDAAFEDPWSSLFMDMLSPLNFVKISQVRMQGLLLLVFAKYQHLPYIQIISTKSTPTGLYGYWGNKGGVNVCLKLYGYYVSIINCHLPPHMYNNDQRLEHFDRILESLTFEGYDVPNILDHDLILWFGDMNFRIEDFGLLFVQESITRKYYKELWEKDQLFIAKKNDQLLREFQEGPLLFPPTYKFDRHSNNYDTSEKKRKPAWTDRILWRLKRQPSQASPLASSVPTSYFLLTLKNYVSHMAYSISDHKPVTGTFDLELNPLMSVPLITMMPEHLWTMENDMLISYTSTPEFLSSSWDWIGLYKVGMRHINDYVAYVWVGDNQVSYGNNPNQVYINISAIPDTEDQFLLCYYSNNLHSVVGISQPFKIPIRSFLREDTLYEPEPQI
From the text: as §1, §2

**Q.** For `CC(C)c1sc(NC(=O)c2ccccc2)c(C(=O)O)c1-c1ccccc1` [CPD-1], which IC50 (human PIPP) is on record?
**A.** > 100 µM

**Q.** What about the IC50 (mouse INPP5K; inorganic phosphate detection assay, 20 µM diC8-PI(3,4,5)P3, 20 min) of the same molecule?
**A.** > 100 µM

**Q.** And the “inhibition of mouse INPP5K (in words)” value (mouse INPP5K; result in words)?
**A.** no inhibition; also recorded: inactive
